≈ marks a conversion by molar mass, not a printed value. Bridge positions count the residues as written; N and C are the ends. Square brackets hold non-standard residues; d marks the D form. Peptide text beside a SMILES is read from it. AEEA = NCCOCCOCC(=O)O
Key:
S. pullorum CVCC1802 = type: cell-based, Salmonella pullorum
Description: (§1) The MIC was determined according to the method developed by Clinical and Laboratory Standards Institute (CLSI). The strains were cultured in Mueller–Hinton Broth medium (MHB) at the appropriate temperature until mid-log phase. A series of two-fold dilutions of N6 and PEGylated N6 (10 μL) and bacterial suspension (1 × 10^5 CFU/mL, 90 μL) were added into 96-well plates and incubated at 37 °C for 18 – 24 h. PBS and MHB were used as the negative and blank control, respectively. All assays were conducted in triplicate.

S. pullorum CVCC1789 = type: cell-based, Salmonella pullorum
Description: as §1

S. pullorum CVCC533 = type: cell-based, Salmonella pullorum
Description: as §1

E. coli CVCC25922 = type: cell-based, Escherichia coli
Description: as §1

E. coli CVCC195 = type: cell-based, Escherichia coli
Description: as §1

E. coli CVCC1515 = type: cell-based, Escherichia coli
Description: as §1

E. coli ATCCO157 = type: cell-based, Escherichia coli; settings: MHB, 1 × 10^5 CFU/mL, 37 °C, 18 – 24 h, triplicate
Description: as §1

C. albicans CMCC98001 = type: cell-based, Candida albicans
Description: as §1

S. typhimurium ATCC14028 = type: cell-based
Description: as §1

S. enteritidis CVCC3377 = type: cell-based
Description: as §1

S. aureus ATCC546 = type: cell-based
Description: as §1

S. hyicus NCTC10350 = type: cell-based
Description: as §1

P. aeruginosa CICC21630 = type: cell-based
Description: as §1

S. aureus ATCC43300 = type: cell-based
Description: as §1

S. aureus ATCC25923 = type: cell-based
Description: as §1

`CC(C)[C@@H]1NC(=O)CNC(=O)[C@H](CC(N)=O)NC(=O)[C@H](CCCNC(=N)N)NC(=O)[C@H](Cc2ccc(O)cc2)NC(=O)[C@H](C(C)C)NC(=O)[C@@H](NC(=O)[C@@H](NC(=O)[C@H](CC(N)=O)NC(=O)[C@H](Cc2c[nH]c3ccccc23)NC(=O)[C@H](C)NC(=O)[C@H](Cc2ccccc2)NC(=O)CNC(=O)COCCOCCN)C(C)C)CSSC[C@@H](C(=O)N[C@@H](Cc2c[nH]cn2)C(=O)N[C@@H](CCCNC(=N)N)C(=O)N[C@@H](CCCNC(=N)N)C(=O)N[C@@H](C)C(=O)N[C@@H](CC(N)=O)C(=O)O)NC(=O)[C@H](C(C)C)NC(=O)[C@H](CCCNC(=N)N)NC1=O` [N6-NH2-miniPEG] (H-[AEEA]GFAWNVCVYRNGVRVCHRRAN-OH; disulfide 8-17) was tested, and the MIC (S. pullorum CVCC1802) was 6.10 µM (≈ 16 µg/mL), the MIC (S. pullorum CVCC1789) was 6.10 µM (≈ 16 µg/mL) and the MIC (S. pullorum CVCC533) was 12.21 µM (≈ 32 µg/mL). For the same compound, the MIC (E. coli CVCC25922) was 3.05 µM (≈ 7.99 µg/mL), the MIC (E. coli CVCC195) was 6.1 µM (≈ 16 µg/mL) and the MIC (E. coli CVCC1515) was 6.1 µM (≈ 16 µg/mL). For the same compound, the MIC (E. coli ATCCO157) was 6.10 µM (≈ 16 µg/mL), the MIC (C. albicans CMCC98001) was greater than 48.84 µM and the MIC (S. typhimurium ATCC14028) was 6.10 µM (≈ 16 µg/mL). The MIC (S. enteritidis CVCC3377) was 6.10 µM (≈ 16 µg/mL), the MIC (S. aureus ATCC546) was 48.84 µM (≈ 128 µg/mL) and the MIC (S. hyicus NCTC10350) was greater than 48.84 µM. For the same compound, the MIC (P. aeruginosa CICC21630) was 24.42 µM (≈ 64 µg/mL), the MIC (S. aureus ATCC43300) was 48.84 µM (≈ 128 µg/mL) and the MIC (S. aureus ATCC25923) was greater than 48.84 µM.

Source: publication PMC9097129, “C-terminal mini-PEGylation of a marine peptide N6 had potent antibacterial and anti-inflammatory properties against Escherichia coli and Salmonella strains in vitro and in vivo” (BMC Microbiology, 2022)
